Data from patent US9394295B2, “Antibacterial homopiperidinyl substituted 3,4-dihydro-1H-[1,8]naphthyridinones” (Janssen Sciences Ireland UC, priority 2011, dated 2016).
In brackets after ≈: the same amount, converted by molar mass. Where two headings read alike, the source gives them in different places.

How the values were obtained:
[1] = Cytotoxicity MTT assay (TOX HELAM); format: cell-based; conditions: human, HelaM cells, read-out: TOX HELAM (222.125) CC50
Method: Cytotoxicity of the compounds was evaluated using the MTT assay. Human HelaM cells grown in 96-well plates were exposed to serial dilutions of the tested compounds (final volume of 0.2 ml) and incubated for 72 hours at 37° C. and 5% CO2. Inhibitors are typically varied over the range of 25 to 0.8 μM. The final DMSO concentration in the assay is 0.5%. MTT (3-(4,5-Dimethylthiazol-2-yl)-2,5-diphenyltetrazolium bromide, a tetrazole) was added and reduced to purple formazan only in living cells. Solubilization of the formazan crystals was achieved by adding 100 μl 2-propanol. Cell viability was determined by measuring the absorbance of the reduced formazan, giving a purple color, at 540 nm and 690 nm. The absorbance measured at 690 nm was automatically subtracted from the absorbance at 540 nm, to eliminate the effects of non-specific absorption. The percent cytotoxicity achieved by the compounds was calculated according to standard methods. Cytotoxicity is reported as CC50, the concentration that causes a 50% reduction in cell viability.
The results are depicted in the table D2 below (TOX HELAM).

[2] = test system: Staphylococcus aureus ATCC 29213; experiment: Antibacterial susceptibility testing: IC90 determination (STA); format: cell-based; conditions: ATCC29213, S. aureus ATCC 29213, 90% inhibitory concentration for bacterial growth, read-out: STA (361.159) IC90
Method: (§1) The following bacteria were used: Staphylococcus aureus ATCC 29213, methicillin-resistant Staphylococcus aureus (MRSA) ATCC 700788 and Escherichia coli ATCC 35218. The bacteria used in this study were grown overnight in flasks containing 100 ml Mueller-Hinton broth (Difco cat. nr. 0757-17) in sterile de-ionized water, with shaking, at 37° C. Stocks were store at −70° C. until use.
(§2) Bacteria were incubated on a tryptic soy agar plate containing 5% sheep blood (Becton Dickinson cat. nr. 254053) for 18-24 hours at 35° C. in aerobic conditions (first passage). For the second passage, fresh Mueller-Hinton broth is inoculated with 5-10 colonies and grown overnight at 35° C. until turbidity (reaching log-phase) in aerobic conditions is reached. The bacterial suspension is then adjusted to 0.5 McFarland density and further diluted 1:100 in Mueller Hinton broth medium. This is used as inoculum.
(§3) MIC assays were performed by the broth microdilution method in a 96-well format (flat-bottom microtitre plates) with a final volume of 0.1 ml Mueller Hinton broth containing two-fold serial dilutions of compounds and inoculated with 5×10^5 CFU/ml of bacteria (standard inoculum size according to CLSI guidelines). Inhibitors are typically varied over the range of 63 to 0.49 μM. The final DMSO concentration in the assay was 1.25% (maximum tolerable DMSO concentration=6%). In the assays where the effect of human serum on the activity of the compounds against S. aureus was tested, human serum was added at a final concentration of 10%. The plates were incubated at 35° C. for 16-20 hours. At the end of incubation the bacterial growth was quantified fluorometrically. For this, resazurin was added to all wells and the plates were re-incubated. The incubation time is dependent on the type of bacteria. A change in color from blue to pink indicated the growth of bacteria. The fluorescence was read in computer-controlled fluorometer (Fluoroskan Ascent FL, Labsystems) at an excitation wavelength 540 nm and an emission wavelength of 590 nm. The % growth inhibition achieved by the compounds was calculated according to standard methods. The IC90 (expressed in μg/ml) was defined as the 90% inhibitory concentration for bacterial growth. A panel of reference compounds were simultaneously tested for QC approval.

S. aureus = experiment: Antibacterial susceptibility testing: IC90 determination with 10% human serum (STA + 10% HS); format: cell-based; conditions: Staphylococcus aureus; S. aureus with human serum at final concentration of 10%; read-out: STA + 10% HS (361.169) IC90
Method: as §1, §2, §3
The results are depicted in the table D2 below (STA+10% HS).

[3] = molecular target: T1, S. aureus ATCC 29213 FabI (Staphylococcus aureus, UniProt Q6GI75); experiment: Staphylococcus aureus FabI enzyme inhibition assay; format: biochemical; conditions: 30 minutes at room temperature, NADH consumption
T1 sequence (Q6GI75 1-256): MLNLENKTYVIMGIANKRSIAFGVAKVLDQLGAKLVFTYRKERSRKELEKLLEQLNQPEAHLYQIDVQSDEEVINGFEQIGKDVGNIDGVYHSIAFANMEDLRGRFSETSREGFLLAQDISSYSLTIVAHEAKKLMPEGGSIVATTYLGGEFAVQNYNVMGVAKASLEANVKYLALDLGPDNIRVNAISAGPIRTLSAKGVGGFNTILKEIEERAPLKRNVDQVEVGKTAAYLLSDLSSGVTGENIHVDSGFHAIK
Method: FabI enzyme inhibition assays were carried out in half-area, 384-well microtitre plates. Compounds were evaluated in 40-μl assay mixtures containing 100 mM NaADA, pH 6.5 (ADA=N-[2-acetamido]-2iminodiacetic acid), 250 μM crotonoyl-CoA, 625 μM NADH and 50 μg/ml S. aureus ATCC 29213 FabI Inhibitors were typically varied over the range of 50 to 0.39 μM. The reaction mixtures were incubated for 30 minutes at room temperature and the reaction was stopped by adding 200 mM Tris buffer (pH 9.0) to create a pH-shift. The consumption of NADH was monitored by measuring the change in absorbance at […]. By comparing sample readings to those of negative (absence of compound) and positive (absence of enzyme) controls, the percent inhibition of enzymatic activity of the compounds was determined. A best-fit curve is fitted by a minimum of squares method. From this an IC50-value (expressed in μg/ml), resulting in 50% inhibition of enzymatic activity, was obtained.

[4] = In vivo pharmacokinetic and oral bioavailability; conditions: male Swiss mice; for half-life: read-out: Half life (t1/2) (converted)
Method: The in vivo pharmacokinetics and oral bioavailability of the compound of the examples was/is investigated in male Swiss mice (fed) following single intravenous (i.v.) bolus and oral (p.o.) administration. For the i.v. and p.o. solution formulations, the compound was/is dissolved in a 20% HP-β-CD solution. The pH of the formulations was/is around pH 4. All i.v. formulations were isotonic.

[5] = mouse, plasma, iv, i.v. 2.5 mg/kg
[6] = mouse, plasma, po, p.o. 10 mg/kg

Compound	CC50 at 72 h [1] [µg/mL]	IC90 [2] [µg/mL]	IC90 (S. aureus) [µg/mL]	IC50 [3] [nM]	also measured
O=C1CCc2cc(/C=C/C(=O)N3CCCC(Cc4ccccc4)CC3)cnc2N1 (stereo not drawn) [Co. No. 3]	> 9.78	3.94 (≈ 10.1 µM)	11.2	976	–
O=C1CCc2cc(/C=C/C(=O)N3CCCC(c4ccccc4)CC3)cnc2N1 (stereo not drawn) [Co. No. 4]	> 9.43	3.42 (≈ 9.11 µM)	3.54	666	–
O=C1CCc2cc(/C=C/C(=O)N3CC=C(Cc4ccccc4)CCC3)cnc2N1 [Co. No. 5]	> 9.73	4.66 (≈ 12 µM)	10.9	–	–
COc1cccc(C2=CCN(C(=O)/C=C/c3cnc4c(c3)CCC(=O)N4)CCC2)c1 [Co. No. 6]	> 10.1	3.21 (≈ 7.96 µM)	6.32	–	–
Cc1ccccc1C1=CCN(C(=O)/C=C/c2cnc3c(c2)CCC(=O)N3)CCC1 [Co. No. 7]	> 9.73	1.47 (≈ 3.79 µM)	2.97	1140	–
Cc1ccccc1C1=CCCN(C(=O)/C=C/c2cnc3c(c2)CCC(=O)N3)CC1 [Co. No. 8]	9.3 (≈ 24 µM)	0.69 (≈ 1.78 µM)	0.84	852	–
COc1ccccc1C1=CCN(C(=O)/C=C/c2cnc3c(c2)CCC(=O)N3)CCC1 [Co. No. 9]	> 10.1	0.99 (≈ 2.45 µM)	1.48	967	–
COc1ccccc1C1=CCCN(C(=O)/C=C/c2cnc3c(c2)CCC(=O)N3)CC1 [Co. No. 10]	> 10.1	0.09 (≈ 0.223 µM)	0.2	867	Vdz ([4]; i.v. 2.5 mg/kg): 2.0 L/kg; AUC(0-inf) [4, 5]: 2160 ng·h/mL; C0 ([4]; mouse, plasma, iv, i.v. 2.5 mg/kg, 20% HP-β-CD solution): 3400 ng/mL; half-life [4, 5]: 1.2 h; clearance ([4]; mouse, plasma, iv, i.v. 2.5 mg/kg, read-out: Plasma clearance Cl (converted)): 20 mL/min/kg; bioavailability ([4]; mouse, plasma, po, p.o. 10 mg/kg vs i.v. 2.5 mg/kg): 78%; AUC(0-inf) [4, 6]: 7090 ng·h/mL; Tmax [4, 6]: 0.5 h; Cmax ([4]; mouse, plasma, po, p.o. 10 mg/kg, 20% HP-β-CD solution): 3740 ng/mL; half-life [4, 6]: 2 h
O=C1CCc2cc(/C=C/C(=O)N3CC=C(c4cccc(Cl)c4)CCC3)cnc2N1 [Co. No. 12]	8.23 (≈ 20.2 µM)	0.71 (≈ 1.74 µM)	4.37	1250	–
COc1ccc(F)cc1C1=CCN(C(=O)/C=C/c2cnc3c(c2)CCC(=O)N3)CCC1 [Co. No. 13]	> 10.6	1.43 (≈ 3.39 µM)	3.05	1380	–
Cc1ccc(F)cc1C1=CCCN(C(=O)/C=C/c2cnc3c(c2)CCC(=O)N3)CC1 [Co. No. 15]	8.57 (≈ 21.1 µM)	0.39 (≈ 0.962 µM)	1.02	789	–
Cc1ccc(C)c(C2=CCN(C(=O)/C=C/c3cnc4c(c3)CCC(=O)N4)CCC2)c1 [Co. No. 16]	9.09 (≈ 22.6 µM)	1.49 (≈ 3.71 µM)	3.01	946	–
Cc1ccc(C)c(C2=CCCN(C(=O)/C=C/c3cnc4c(c3)CCC(=O)N4)CC2)c1 [Co. No. 17]	4.11 (≈ 10.2 µM)	0.33 (≈ 0.822 µM)	0.72	946	–
O=C1CCc2cc(/C=C/C(=O)N3CC=C(c4ccc(Cl)cc4)CCC3)cnc2N1 [Co. No. 18]	6.85 (≈ 16.8 µM)	1.52 (≈ 3.73 µM)	5.08	1420	–
O=C1CCc2cc(/C=C/C(=O)N3CC=C(c4ccccc4Cl)CCC3)cnc2N1 [Co. No. 20]	8.52 (≈ 20.9 µM)	0.63 (≈ 1.54 µM)	1.15	785	–
O=C1CCc2cc(/C=C/C(=O)N3CCC=C(c4ccccc4Cl)CC3)cnc2N1 [Co. No. 21]	9.24 (≈ 22.7 µM)	< 0.2	0.36	932	–
O=C1CCc2cc(/C=C/C(=O)N3CC=C(c4ccccc4F)CCC3)cnc2N1 [Co. No. 22]	12.5 (≈ 32 µM)	0.59 (≈ 1.51 µM)	1.03	664	–
O=C1CCc2cc(/C=C/C(=O)N3CCC=C(c4ccccc4F)CC3)cnc2N1 [Co. No. 23]	> 9.83	0.18 (≈ 0.46 µM)	0.35	1070	–
O=C1CCc2cc(/C=C/C(=O)N3CCC=C(c4ccc(Cl)cc4)CC3)cnc2N1 [Co. No. 24]	7.25 (≈ 17.8 µM)	1.52 (≈ 3.73 µM)	6.17	1910	–
COc1ccc(C2=CCN(C(=O)/C=C/c3cnc4c(c3)CCC(=O)N4)CCC2)cc1 [Co. No. 25]	> 10.1	3.06 (≈ 7.58 µM)	5.83	2130	–
COc1ccc(C2=CCCN(C(=O)/C=C/c3cnc4c(c3)CCC(=O)N4)CC2)cc1 [Co. No. 26]	> 10.1	1.46 (≈ 3.62 µM)	2.86	1660	–
CC1(c2ccccc2)CCCN(C(=O)/C=C/c2cnc3c(c2)CCC(=O)N3)CC1 (stereo not drawn) [Co. No. 28]	> 9.78	2.4 (≈ 6.16 µM)	7.42	~1670	–
COc1cccc(C2=CCCN(C(=O)/C=C/c3cnc4c(c3)CCC(=O)N4)CC2)c1 [Co. No. 29]	> 10.6	0.78 (≈ 1.93 µM)	1.66	2400	–
COc1cccc(F)c1C1=CCCN(C(=O)/C=C/c2cnc3c(c2)CCC(=O)N3)CC1 [Co. No. 31]	> 10.6	0.21 (≈ 0.498 µM)	0.26	1610	–
O=C1CCc2cc(/C=C/C(=O)N3CCc4ccccc4CC3)cnc2N1 [Co. No. 32]	> 8.73	21.4 (≈ 61.7 µM)	20.2	1530	–
O=C1CCc2cc(/C=C/C(=O)N3CC=C(c4ccccc4)CCC3)cnc2N1 [compound 1]	–	–	–	964	–
O=C1CCc2cc(/C=C/C(=O)N3CCCC(n4cccn4)CC3)cnc2N1 (stereo not drawn) [compound 49]	–	–	–	4570	–
O=C1CCc2cc(/C=C/C(=O)N3CCCC(n4ccnn4)CC3)cnc2N1 (stereo not drawn) [compound 50]	–	–	–	2180	–
